US7414047B2, “Piperazinyl and diazapanyl benzamides and benzthioamides” (Janssen Pharmaceutica N.V., priority 2002, dated 2008)
pKi: −log10 of the molar value. Structures can show the parent of a compound that is named as a salt.

The compounds below were run against T1, human histamine H3 receptor (Homo sapiens, UniProt Q9Y5N1) (assay: {3H}-N-methylhistamine binding). Details: not given.
T1 construct: One microgram of supercoiled H3 receptor cDNA was added to the cells and mixed; expressed in transfected cells; membranes prepared from cell pellets
T1 sequence (Q9Y5N1 whole entry): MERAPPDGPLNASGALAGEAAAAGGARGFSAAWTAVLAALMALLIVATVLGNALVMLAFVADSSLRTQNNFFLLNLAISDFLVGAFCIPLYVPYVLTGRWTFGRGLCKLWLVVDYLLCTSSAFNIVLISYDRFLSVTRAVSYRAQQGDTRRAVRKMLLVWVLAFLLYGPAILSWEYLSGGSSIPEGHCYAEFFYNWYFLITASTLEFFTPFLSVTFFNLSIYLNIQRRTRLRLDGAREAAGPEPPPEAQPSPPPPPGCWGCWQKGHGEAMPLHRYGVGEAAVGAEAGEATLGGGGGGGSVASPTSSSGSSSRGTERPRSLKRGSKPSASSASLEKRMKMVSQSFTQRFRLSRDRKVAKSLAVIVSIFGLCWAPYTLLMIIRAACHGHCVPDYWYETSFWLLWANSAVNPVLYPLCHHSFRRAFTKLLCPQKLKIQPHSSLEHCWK
Procedure: Transfection of Cells with Human Histamine Receptor
A 10 cm tissue culture dish with a confluent monolayer of SK-N-MC cells was split two days prior to transfection. Using sterile technique the media was removed and the cells were detached from the dish by the addition of trypsin. One fifth of the cells were then placed onto a new 10 cm dish. Cells were grown in a 37° C. incubator with 5% CO2 in Minimal Essential Media Eagle with 10%. Fetal Bovine Serum. After two days cells were approximately 80% confluent. These were removed from the dish with trypsin and pelleted in a clinical centrifuge. The pellet was then re-suspended in 400 μL complete media and transferred to an electroporation cuvette with a 0.4 cm gap between the electrodes. One microgram of supercoiled H3 receptor cDNA was added to the cells and mixed. The voltage for the electroporation was set at 0.25 kV, the capacitance was set at 960 μF. After electroporation the cells were diluted into 10 mL complete media and plated onto four 10 cm dishes. Because of the variability in the efficiency of electroporation, four different concentrations of cells were plated. The ratios used were; 1:20, 1:10, 1:5, with the remainder of the cells being added to the fourth dish. […] After 10 days dishes were analyzed for surviving colonies of cells. Dishes with well-isolated colonies were used. Cells from individual colonies were isolated and tested. SK-N-MC cells were used because they give efficient coupling for inhibition of adenylate cyclase. The clones that gave the most robust inhibition of adenylate cyclase in response to histamine were used for further study.
{^3H}-N-methylhistamine Binding
Cell pellets from histamine H3 receptor-expressing SK-N-MC cells were homogenized in 20 mM TrisHCl/0.5 mM EDTA. Supernatants from an 800 g spin were collected, recentrifuged at 30,000 g for 30 min. Pellets were re-homogenized in 50 mM Tris/5 mM EDTA (pH 7.4). […] Filters were dried, added to 4 mL scintillation cocktail and then counted on a liquid scintillation counter. Non-specific binding was defined with 10 μM histamine.
In the case of `CCC(CC)N1CCN(C(=O)c2ccc(CNCc3ccccc3)cc2)CC1` [Example 20, {4-(Benzylamino-methyl)-phenyl}-{4-(1-ethyl-propyl)-piperazin-1-yl}-methanone], the pKi was 8.70. For `CCC(CC)N1CCN(C(=O)c2ccc(CN3CCCCCC3)cc2)CC1` [Example 21, (4-Azepan-1-ylmethyl-phenyl)-{4-(1-ethyl-propyl)-piperazin-1-yl}-methanone], the pKi was 8.70. With `CCC(CC)N1CCN(C(=O)c2ccc(CN3CCC4CCCCC4C3)cc2)CC1` (stereo not shown) [Example 22, {4-(1-Ethyl-propyl)-piperazin-1-yl}-{4-(decahydro-isoguinolin-2-ylmethyl)-phenyl}-methanone] the pKi was 8.70. `CCC(C)N1CCN(C(=O)c2ccc(CN3CCCCCC3)cc2)CC1` (stereo not shown) [Example 23, (4-Azepan-1-ylmethyl-phenyl)-(4-sec-butyl-piperazin-1-yl)-methanone] was tested, and the pKi was 9.05. Work on `CCC(C)N1CCN(C(=O)c2ccc(CN(C)C)cc2)CC1` (stereo not shown) [Example 24, (4-sec-Butyl-piperazin-1-yl)-(4-dimethylaminomethyl-phenyl)-methanone] yielded a pKi of 8.82. With `CCC(C)N1CCN(C(=O)c2ccc(CN3CCCC3)cc2)CC1` (stereo not shown) [Example 25, (4-sec-Butyl-piperazin-1-yl)-(4-pyrrolidin-1-ylmethyl-phenyl)-methanone] the pKi was 9.00. Compound `CCC(CC)N1CCN(C(=O)c2ccc(CN3CCCC3)cc2)CC1` [Example 26, {4-(1-Ethyl-propyl)-piperazin-1-yl}-(4-pyrrolidin-1-ylmethyl-phenyl)-methanone] has a pKi of 9.05. Work on `CCC(CC)N1CCN(C(=O)c2ccc(CN3CCCCC3)cc2)CC1` [Example 27, {4-(1-Ethyl-propyl)-piperazin-1-yl}-(4-piperidin-1-ylmethyl-phenyl)-methanone] yielded a pKi of 9.40. `CCC(C)N1CCN(C(=O)c2ccc(CN3CCCCC3)cc2)CC1` (stereo not shown) [Example 28, (4-sec-Butyl-piperazin-1-yl)-(4-piperidin-1-ylmethyl-phenyl)-methanone] gave a pKi of 9.05. Compound `CCC(C)N1CCN(C(=O)c2ccc(CNc3ccccc3)cc2)CC1` (stereo not shown) [Example 29, (4-sec-Butyl-piperazin-1-yl)-(4-phenylaminomethyl-phenyl)-methanone] has a pKi of 7.42. With `CCCCN1CCN(C(=O)c2ccc(CN(C)C)cc2)CC1` [Example 30, (4-Butyl-piperazin-1-yl)-(4-dimethylaminomethyl-phenyl)-methanone] the pKi was 7.74. Work on `CCCCN1CCN(C(=O)c2ccc(CNc3ccc(C(F)(F)F)cc3)cc2)CC1` [Example 31, (4-Butyl-piperazin-1-yl)-{4-{(4-trifluoromethyl-phenylamino)-methyl}-phenyl}-methanone] yielded a pKi of 6.20. `CCCCCCC(C)N1CCN(C(=O)c2ccc(CN3CCOCC3)cc2)CC1` (stereo not shown) [Example 32, {4-(1-Methyl-heptyl)-piperazin-1-yl}-(4-morpholin-4-ylmethyl-phenyl)-methanone] was tested, and the pKi was 6.89. Compound `CCCCCCC(C)N1CCN(C(=O)c2ccc(CN3CCCCC3)cc2)CC1` (stereo not shown) [Example 33, {4-(1-Methyl-heptyl)-piperazin-1-yl}-(4-piperidin-1-ylmethyl-phenyl)-methanone] has a pKi of 7.28. Work on `CC(C)N1CCN(C(=O)c2ccc(CNc3ccc(C(F)(F)F)cc3)cc2)CC1` [Example 34, (4-Isopropyl-piperazin-1-yl)-{4-{(4-trifluoromethyl-phenylamino)-methyl}-phenyl}-methanone] yielded a pKi of 7.17. Compound `CCCCN1CCN(C(=O)c2ccc(CN3CCCC(C(F)(F)F)C3)cc2)CC1` (stereo not shown) [Example 36, (4-Butyl-piperazin-1-yl)-{4-(3-trifluoromethyl-piperidin-1-ylmethyl)-phenyl}-methanone] has a pKi of 7.92. For `CCCCN1CCN(C(=O)c2ccc(CN3CCOCC3)cc2)CC1` [Example 37, (4-Butyl-piperazin-1-yl)-(4-morpholin-4-ylmethyl-phenyl)-methanone], the pKi was 8.05. Compound `CC(C)N1CCN(C(=O)c2cccc(CN3CCOCC3)c2)CC1` [Example 38, (4-Isopropyl-piperazin-1-yl)-(3-morpholin-4-ylmethyl-phenyl)-methanone] has a pKi of 6.74. With `CC(C)N1CCN(C(=O)c2cccc(CN3CCCCC3)c2)CC1` [Example 39, (4-Isopropyl-piperazin-1-yl)-(3-piperidin-1-ylmethyl-phenyl)-methanone] the pKi was 7.46. `CC(C)N1CCN(C(=O)c2ccc(CN3CCOCC3)cc2)CC1` [Example 40] was tested, and the pKi was 8.52. `CN1CCN(C(=O)c2cccc(CN3CCC(Cc4ccccc4)CC3)c2)CC1` [Example 42, {3-(4-Benzyl-piperidin-1-ylmethyl)-phenyl}-(4-methyl-piperazin-1-yl)-methanone] gave a pKi of 6.10. `CN1CCN(C(=O)c2ccc(CN3CCOCC3)cc2)CC1` [Example 43, (4-Methyl-piperazin-1-yl)-(4-morpholin-4-ylmethyl-phenyl)-methanone dihydrochloride] gave a pKi of 7.66. `CC(C)N1CCN(C(=O)c2ccc(CNc3cc(C(F)(F)F)ccn3)cc2)CC1` [Example 44, (4-Isopropyl-piperazin-1-yl)-{4-{4-trifluoromethyl-pyridin-2-ylamino)-methyl}-phenyl}-methanone dihydrochloride] was tested, and the pKi was 7.07. Compound `CCC(CC)N1CCN(C(=O)c2ccc(CNc3ccccc3)cc2)CC1` [Example 45, {4-(1-Ethyl-propyl)-piperazin-1-yl}-(4-phenylaminomethyl-phenyl)-methanone dihydrochloride] has a pKi of 7.27. In the case of `CCC(CC)N1CCN(C(=O)c2ccc(CN(C)C)cc2)CC1` [Example 46, (4-Dimethylaminomethyl-phenyl)-{4-(1-ethyl-propyl)-piperazin-1-yl}-methanone dihydrochloride], the pKi was 8.70. `CCC(CC)N1CCN(C(=O)c2ccc(CNc3ccc(C(F)(F)F)cc3)cc2)CC1` [Example 47, {4-(1-Ethyl-propyl)-piperazin-1-yl}-{-{4-{(4-trifluoromethyl-phenylamino)-methyl}-phenyl}-methanone dihydrochloride] was tested, and the pKi was 7.09. With `CCC(CC)N1CCN(C(=O)c2ccc(CN3CCOCC3)cc2)CC1` [Example 48, {4-(1-Ethyl-propyl)-piperazin-1-yl}-(4-morpholin-4-ylmethyl-phenyl)-methanone dihydrochloride] the pKi was 9.00. For `CCC(CC)N1CCN(C(=O)c2ccc(CN3CCCC(C(F)(F)F)C3)cc2)CC1` (stereo not shown) [Example 49, {4-(1-Ethyl-propyl)-piperazin-1-yl}-{4-(3-trifluoromethyl-piperidin-1-ylmethyl)-phenyl}-methanone dihydrochloride], the pKi was 8.40. For `CCC(C)N1CCN(C(=O)c2ccc(CN3CCCC(C(F)(F)F)C3)cc2)CC1` (stereo not shown) [Example 50, (4-sec-Butyl-piperazin-1-yl)-{4-(3-trifluoromethyl-piperidin-1-ylmethyl)-phenyl}-methanone dihydrochloride], the pKi was 7.52. `CCC(C)N1CCN(C(=O)c2ccc(CN3CCOCC3)cc2)CC1` (stereo not shown) [Example 51, (4-sec-Butyl-piperazin-1-yl)-(4-morpholin-4-ylmethyl-phenyl)-methanone dihydrochloride] showed a pKi of 8.70. Compound `CC(C)N1CCN(C(=O)c2ccc(CNc3ccc(C(F)(F)F)nc3)cc2)CC1` [Example 52, (4-Isopropryl-piperazin-1-yl)-{4-{(6-trifluoromethyl-pyridin-3-ylamino)-methyl}-phenyl}-methanone dihydrochloride] has a pKi of 7.85. In the case of `CC(C)N1CCN(C(=O)c2ccc(CNc3ccc(Cl)cn3)cc2)CC1` [Example 53, {4-{(5-Chloro-pyridin-2-ylamino)-methyl}-phenyl}-4-isopropyl-piperazin-1-yl)-methanone dihydrochloride], the pKi was 7.52. In the case of `CN1CCN(C(=O)c2ccc(CN3CCCCC3)cc2)CC1` [Example 54, (4-Methyl-piperazin-1-yl)-(4-piperidin-1-ylmethyl-phenyl)-methanone dihydrochloride], the pKi was 7.62. `CC(C)N1CCN(C(=O)c2ccc(CNc3ccc(C(F)(F)F)cn3)cc2)CC1` [Example 55, (4-Isopropyl-piperazin-1-yl)-{4-{(5-trifluoromethyl-pyridin-2-ylamino)-methyl}-phenyl}-methanone dihydrochloride] gave a pKi of 7.31. Work on `CC(C)N1CCN(C(=O)c2ccc(CN3CCCC(C(F)(F)F)C3)cc2)CC1` (stereo not shown) [Example 56, (4-Isopropyl-piperazin-1-yl)-{4-(3-trifluoromethyl-piperidin-1-ylmethyl)-phenyl}-methanone dihydrochloride] yielded a pKi of 9.00. `CCN(CC)Cc1ccc(C(=O)N2CCN(C(C)C)CC2)cc1` [Example 57, (4-Diethylaminomethyl-phenyl)-(4-isopropyl-piperazin-1-yl)-methanone dihydrochloride] was tested, and the pKi was 8.22.

Same assay, conditions: membranes of histamine H3 receptor-expressing SK-N-MC cells; 0.8 nM {3H}-N-methylhistamine; 45 min at 25° C.; […]
In the case of `CC(C)N1CCN(Cc2ccc(C(=O)N3CCN(C(C)C)CC3)cc2)CC1` [Example 35, (4-Isopropyl-piperazin-1-yl)-{4-(4-isopropyl-piperazin-1-ylmethyl)-phenyl}-methanone], the pKi was 7.74.
